According to US11939303B2, “Sulfamate derivatives of 4-(1-phenyl-1H-[1,2,3]triazol-4-yl)-phenol, derivatives of 4-(1-phenyl-1H-[1,2,3]triazol-4-yl)-phenol, their medical use and the method of obtaining 4-(1-phenyl-1H-[1,2,3]triazol-4-yl)-phenyl sulfamate derivatives” (POLITECHNIKA GDANSKA, priority 2018, dated 2024):
pIC50: −log10 of the molar value.

Molecular target: T1, STS steroid sulfatase enzyme isolated from a human placenta (Homo sapiens, UniProt P08842)
T1 construct: human placenta was stripped from membranes and homogenized in ice-cold Tris-HCl buffer pH 7.4; from tissue; host or cells: human placenta
T1 sequence (P08842 22-583): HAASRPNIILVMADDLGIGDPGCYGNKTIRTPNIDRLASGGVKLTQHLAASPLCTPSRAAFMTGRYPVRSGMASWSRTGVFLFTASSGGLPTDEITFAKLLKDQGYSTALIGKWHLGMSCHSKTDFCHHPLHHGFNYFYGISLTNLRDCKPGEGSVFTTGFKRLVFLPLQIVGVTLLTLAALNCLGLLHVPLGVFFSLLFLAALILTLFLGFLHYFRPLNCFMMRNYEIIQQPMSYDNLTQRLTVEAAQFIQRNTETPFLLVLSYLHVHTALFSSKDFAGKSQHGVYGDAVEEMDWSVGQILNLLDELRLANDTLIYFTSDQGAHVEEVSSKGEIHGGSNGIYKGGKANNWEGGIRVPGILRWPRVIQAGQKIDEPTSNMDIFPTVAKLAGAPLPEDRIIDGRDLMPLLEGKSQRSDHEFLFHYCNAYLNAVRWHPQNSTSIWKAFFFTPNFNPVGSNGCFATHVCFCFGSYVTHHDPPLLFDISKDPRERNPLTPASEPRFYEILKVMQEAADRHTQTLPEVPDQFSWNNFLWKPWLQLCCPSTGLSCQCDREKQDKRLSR
Experiment: STS steroid sulfatase enzymatic assay with nitrophenyl sulfate (NPS)
Assay type: biochemical
Conditions: NPS substrate, pH 7.25, 60 minutes, p-nitrophenol at 405 nm, read-out: IC50 (ability to inhibit steroid sulfatase activity)
Description: The medical and biological activity of the compounds defined the general formula 1, for use as active compounds—medicament—drugs and/or as STS steroid sulfatase inhibitors, diagnostic agent and biological use were evaluated using the STS steroid sulfatase enzyme isolated from a human placenta according to the following procedure: • human placenta was stripped from membranes and homogenized in ice-cold Tris-HCl buffer pH 7.4 containing 0.1% Triton X-100 and 0.02% NaN3. • the homogenate was alternately frozen and thawed a few times and then centrifuged at 100000 g for 60 min, • the supernatant was removed and the same procedure from homogenization to centrifugation was carried out 5 times, • finally, the enzyme was purified by three-step chromatography using columns: DEAE-cellulose, Con A-Sepharose and Bio-Gel A-1.5 and appropriate buffers. All steps were carried out at 4° C. The biological, diagnostics and medical activity of STS inhibitors, for the compounds defined by the general formula 1, were evaluated by analyzing the progress of the enzymatic reaction using nitrophenyl sulfate (NPS). The final volume of the reaction mixture was 120 μL (pH=7.25) and contained 0.8 μmol NPS, 40 μmol Tris HCl and the appropriate amount of enzyme. After 60 minutes of reaction time, 0.5 mL of 1M NaOH was added to the reaction mixture. Released p nitrophenol was determined using a spectrophotometer at 405 nm. In the final step, the IC50 parameter values (characterizing the ability of obtained compounds to inhibit steroid sulfatase activity) were determined. […] Therefore, the compounds of the general formula 1 have biological, medical and diagnostic activity, and have medical applications for use as a medicament a well as in diagnostics for use as a diagnostic agent. It has been confirmed that the new compounds with general formula 1, as one of the possible mechanisms of medical and biological action, show a strong STS inhibitory activity at low micromolar or nanomolar concentrations, which is sufficient for the compounds to act as drugs classified as steroid sulfatase inhibitors or as compounds for use as steroid sulfatase inhibitors in diagnostic tests, in vitro clinical trials and its use in biological sciences. In particular, the compounds of the general formula 1 are for use as medicaments—useful as drugs in cancer therapy and in particular in the therapy of hormone-dependent cancers of animals, in particular mammals, including humans.

| pIC50 | Structure (SMILES) |
| --- | --- |
| 6.09 | NS(=O)(=O)Oc1ccc(-c2cn(-c3cc(C(F)(F)F)cc(C(F)(F)F)c3)nn2)cc1 [4-[1-(3,5-Bis-trifluoromethyl-phenyl)-1H-[1,2,3]triazol-4-yl]-phenyl sulfamate] |
| 6.62 | NS(=O)(=O)Oc1ccc(-c2cn(-c3ccc(OC(F)(F)F)cc3)nn2)cc1 [4-[1-(4-trifluoromethoxy-phenyl)-1H-[1,2,3]-triazol-4-yl]-phenyl sulfamate] |
| 7.44 | NS(=O)(=O)Oc1ccc(-c2cn(-c3cc(F)cc(F)c3)nn2)cc1 [4-[1-(3,5-difluoro-phenyl)-1H-[1,2,3]-triazol-4-yl]-phenyl sulfamate] |
| 6.74 | NS(=O)(=O)Oc1ccc(-c2cn(-c3cccc(C(F)(F)F)c3)nn2)cc1 [4-[1-(3-trifluoromethyl-phenyl)-1H-[1,2,3]-triazol-4-yl]-phenyl sulfamate] |
